Reference: publication PMC9299485, “4‐Iodopyrimidine Labeling Reveals Nuclear Translocation and Nuclease Activity for Both MIF and MIF2” (Chemistry (Weinheim an Der Bergstrasse, Germany), 2021)
Where two headings read alike, the source gives them in different places.

Experiments:
MIF [1] = target: T1, MIF (Homo sapiens, UniProt P14174); assay: MIF tautomerase activity inhibition (4-HPP substrate, UV 306 nm); type: biochemical; details: for potency relative to corresponding chloro-substituted intermediate: iodo compound vs chloro intermediate
T1 construct: His tag (C); made in house; host or cells: Escherichia coli BL21 (DE3), pET-20b(+)
T1 sequence (P14174 2-115 limits assumed): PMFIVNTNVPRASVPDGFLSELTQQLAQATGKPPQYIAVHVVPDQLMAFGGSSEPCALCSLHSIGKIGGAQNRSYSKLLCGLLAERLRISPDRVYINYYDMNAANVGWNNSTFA
Protocol: 2. Preparation of recombinant MIF and MIF2.
The detailed procedure to produce C-terminal His-tagged recombinant human MIF was reported in our previous publications.[1,4,5] rhMIF was expressed through transforming a pET-20b(+) plasmid containing the target gene into Escherichia coli BL21 (DE3) according to literature procedures.[6] Overexpression was performed and cells were collected and sonicated.
The obtained supernatant was applied to a medium pressure chromatography system (Biologic Duoflow) equipped with a His trap HP (5 mL) column with detection at 280 nm for the eluent.
The column was washed with a binding buffer containing 50 mM Tris and 10% glycerol at pH 7.4 and eluted with elution buffer containing 500 mM imidazole, 50 mM Tris, 10% glycerol at pH 7.4. The pure fractions (as judged by SDS-PAGE) were pooled and subjected to a PD-10 column (GE healthcare) that was equilibrated with PBS buffer at pH 7.4 to remove the high concentration of imidazole. The collected MIF solution was divided into 50 µL aliquots and stored at –80 °C. Purity of obtained protein was tested by SDS-PAGE and Coomassie staining.
The concentration of protein was determined using the Bradford assay.
(§1) The detailed procedure to produce recombinant human MIF2 was reported in our previous publications.[7] Gene sequences of the human MIF2 gene (Invitrogen) was adapted to bacterial expression. After subcloning into a pET20b(+) expression vector, IPTG-induced expression was performed in E.coli strain BL21(DE3). MIF2 proteins were overproduced overnight and harvested cells were resuspended and sonicated. The soluble fraction was puriﬁed using a Q sepharose column (GE Healthcare) with a gradient of NaCl. The fractions containing MIF2 were brought to 1.7 M ammonium sulfate and loaded on a phenyl sepharose column (GE Healthcare) and eluted with a gradient to 0 M ammonium sulfate in a 20 mM sodium phosphate buffer, pH 8.0. Finally, the proteins were purified by size exclusion chromatography on a Superdex75 column (GE Healthcare) in 20 mM sodium phosphate buffer, pH 8.0, with an elution volume characteristic for trimeric MIF2. The collected protein was concentrated using a VivaSpin centrifugation column with a molecular weight cut off at 5000 D a (Sartorius Stedim Biotech GmbH). Purified proteins were aliquoted, snap frozen in liquid nitrogen, and stored at –80 °C. Purity of obtained protein was tested by SDS-PAGE and coomassie staining. The concentration of protein was determined using the Bradford a ssay.
(§2) 3.1 MIF and MIF2 Inhibition
(§3) The protocol for measuring inhibition of MIF or MIF2 tautomerase enzyme activity was described previously.[5] 500 nM MIF solution (180 µL) or 100 nM MIF2 solution (180 µL) in boric acid buffer ([…], pH 6.2) was mixed with 20 mM EDTA solution (10 µL) in demineralized water. A solution of the desired compound dissolved in DMSO (10 µL) or blank DMSO (10 µL) was added. The resulting mixture was preincubated at room temperature for 10 minutes.
(§4) Subsequently, 50 µL of this mixture was mixed with 50 µL of a 1 mM 4-HPP solution for MIF or 1 mM PP solution for MIF2 in ammonium acetate buffer (50 mM, pH 6.0). Thereafter, MIF or MIF2 tautomerase activity was monitored by measuring the increase of UV absorbance at 306 nm for MIF or 300 nm for MIF2 over time. The MIF or MIF2 tautomerase activity of the mixture with blank DMSO dilution was set to 100% enzyme activity. Noncatalyzed conversion of the substrate in the mixture without MIF or MIF2 was set to 0%. The data acquired from the first 3 minutes of the measurement were used to calculate the initial conversion speed. All experiments were performed in triplicate and data processing was done using the program […]
(§5) Table S1. IC50 values (10 min) and inactivation parameters of synthesized compounds.
(§6) (1 picture or pasted object on this page, not shown here)

MIF2 [2] = target: T2, MIF2 (Homo sapiens, UniProt P30046); assay: MIF2 tautomerase activity inhibition (PP substrate, UV 300 nm); type: biochemical
T2 construct: made in house; host or cells: E. coli BL21(DE3), pET20b(+)
Protocol: 2. Preparation of recombinant MIF and MIF2. […]
Purity of obtained protein was tested by SDS-PAGE and Coomassie staining. […]
as §1, §2, §3, §4, §5, §6

MIF2 [3] = target: T2, MIF2; assay: Labeling of recombinant MIF2 by probe 8, SDS-PAGE in-gel fluorescence, competition; type: binding; details: Figure 2G
Protocol: (§7) 4. Purified protein labeling and Mass spectra
(§8) 4.1 MIF or MIF2 labeling with probe 8
(§9) MIF or MIF2 were diluted to desired concentration with PBS buffer and incubated with probe
(§10) 8 at corresponding concentration and for corresponding time. Subsequently, the mixture was
(§11) denatured (99 °C, 10 min). Labeled protein and free probe were separated by 12% Bis-Tris gel
(§12) (Bio-Rad Laboratories, #4561084). Probe 8 labeled protein was visualized using in-gel
(§13) 4.2 MIF or MIF2 labeling and mass spectra
(§14) Figure S2. Mass spectra of labeled MIF2. (A) Native MIF2 and probe 8 (B) or probe 9 (C)
as §6

MIF [4] = target: T1, MIF; assay: Labeling of recombinant MIF by probe 8, SDS-PAGE in-gel fluorescence, competition; type: binding; details: pre-treatment of MIF with competitor, Figure 2C, D
Protocol: as §7, §8, §9, §10, §11, §12, §13, §14, §6

MIF [5] = target: T1, MIF; assay: Kitz-Wilson inactivation kinetics on MIF tautomerase; type: biochemical; details: for KI (inactivation) / kinact: Kitz-Wilson analysis, ±SD, n=3; for KI (inactivation): read-out: KI MIF (inhibition constant); for kinact: read-out: kinact MIF (rate of enzyme inactivation) (converted)
Protocol: (§15) In order to derive the kinetic parameters for inactivation of MIFand MIF2, we employed the approach described by Kitz and Wilson. Briefly, four different concentrations of the inhibitor with four different pre-incubation times were selected. The assay conditions are described above with the difference in incubation time.
(§16) For the data analysis, the pre-incubation times for the different concentration of the inhibitor versus the remaining enzyme activity were plotted, so from the linear regression the slope of each concentration of the probe was obtained ( Table S3). Then the 1/slope versus 1/[inhibitor] were plotted (Figure 4) and from the linear regression line ki was derived from the 1/y -intercept and derived from the slope times the ki as described by Kitz and Wilson.
For example, for the probe 8 the equation is: Y = 7,476*X + 5,069
So, the kinact and the KI values are: kinact =1/5,069 =0.20 min-1
(also on this page, place not known: -1 0 1 2 3 0 50 100 log [FM011] (µM) DDT (%) -1 0 1 2 3 0 50 100 log [ZP308] (µM) DDT activity (%) 0.0 0.5 1.0 1.5 2.0 0 50 100 log [ZP307] (µM) DDT activity (%) 1.4 1.6 1.8 2.0 2.2 0 50 100 log [FM031] (µM) DDT activity (%) pre -incubation cond itions pre -incubation activity o f (Table 1/y-intercept) […]
(§17) Table S4. Kinetics studies results.
(§18) Time-dependent inhibition Kitz and Wilson curve […]
ln (MIF tautomerase activity %)
Time-dependent inhibition on MIF Y = 7,476*X + 5,069
Time-dependent inhibition on MIF Y = 12,07*X + 4,234 […]
ln (MIF2 tautomerase activity %)
(§19) Time-dependent inhibition on MIF2 Y = 299,5*X + 11,14 […]

MIF2 [6] = target: T2, MIF2; assay: Kitz-Wilson inactivation kinetics on MIF2 tautomerase; type: biochemical; details: Kitz-Wilson analysis, ±SD, n=3
Protocol: as §15, §16
For example, for the probe 8 the equation is: Y = 7,476*X + 5,069 […]
as §17, §18
ln (MIF tautomerase activity %) […]
as §19

[7] = Table 1, tautomerase activity, mean±SD, n=3, read-out: IC50 MIF
[8] = Table 1, tautomerase activity, mean±SD, n=3, read-out: IC50 MIF2
[9] = Table S1, 10 min, read-out: IC50 (µM) MIF
[10] = Table S1, 10 min, read-out: IC50 (µM) MIF2
[11] = Table 2, 10 min pre-incubation, ±SD, n=3, read-out: IC50 MIF
[12] = Table 2, 10 min pre-incubation, ±SD, n=3, read-out: IC50 MIF2

Compound | IC50 (MIF [1]; [7]) [µM] | IC50 (MIF2 [2]; [8]) [µM] | IC50 (MIF [1]; [9]) [µM] | IC50 (MIF2 [2]; [10]) [µM] | other results
Ic1cc(-c2ccccc2)ncn1 [Compound 1, 4‐iodo‐6‐phenylpyrimidine, reference compound] | 4 ± 0.98 | > 250 | – | – | potency relative to corresponding chloro-substituted intermediate (MIF [1]; Table S1): at least two times more potent
Clc1cc(-c2ccccc2)ncn1 [Compound 1a] | – | – | 16 | > 250 | –
O=C(O)c1ccc(-c2cc(I)ncn2)cc1 [Compound 2] | 5 ± 0.46 | 125 ± 15 | – | – | labeling of MIF2 by probe 8 after pre-incubation with inhibitor (MIF2 [3]): outcompeted; potency relative to corresponding chloro-substituted intermediate (MIF [1]; Table S1): at least two times more potent; labeling of MIF by probe 8 after prior treatment with inhibitor (MIF [4]): abolished
O=C(O)c1ccc(-c2cc(Cl)ncn2)cc1 [Compound 2a] | – | – | 17 | > 250 | –
Cc1nc(I)cc(-c2ccc(C(=O)O)cc2)n1 [Compound 3] | > 250 | > 250 | – | – | –
Cc1nc(Cl)cc(-c2ccc(C(=O)O)cc2)n1 [Compound 3a] | – | – | 95 | 103 | IC50 (MIF [1]; Table S2 dose-inhibition curves, read-out: IC50 MIF tautomerase): 72 ± 17 µM; IC50 (MIF2 [2]; Table S3 dose-inhibition curves (DDT activity), read-out: IC50 MIF2 tautomerase): 107 ± 6 µM
O=C(O)c1ccc(-c2cc(I)nc(N3CCOCC3)n2)cc1 [Compound 4] | 15 ± 7.5 | > 250 | – | – | potency relative to corresponding chloro-substituted intermediate (MIF [1]; Table S1): at least two times more potent
O=C(O)c1ccc(-c2cc(Cl)nc(N3CCOCC3)n2)cc1 [Compound 4a] | – | – | 174 | > 250 | –
O=C(O)c1ccc(-c2cc(I)nc(-c3ccccc3)n2)cc1 [Compound 5, 4-(6-Iodo-2-phenylpyrimidin-4-yl)benzoic acid] | 59 ± 6.3 | > 250 | – | – | –
O=C(O)c1ccc(-c2cc(Cl)nc(-c3ccccc3)n2)cc1 [Compound 5a, 4-(6-Chloro-2-phenylpyrimidin-4-yl)benzoic acid] | – | – | 36 | 85 | –
Cc1c(I)ncnc1-c1ccc(C(=O)O)cc1 [Compound 6, 4-(6-Iodo-5-methylpyrimidin-4-yl)benzoic acid] | 56 ± 12 | > 250 | – | – | potency relative to corresponding chloro-substituted intermediate (MIF [1]; Table S1): at least two times more potent
Cc1c(Cl)ncnc1-c1ccc(C(=O)O)cc1 [Compound 6a, 4-(6-Chloro-5-methylpyrimidin-4-yl)benzoic acid] | – | – | > 250 | > 250 | –
O=C(CCCC[C@@H]1SC[C@@H]2NC(=O)N[C@@H]21)NCCNC(=O)c1ccc(-c2cc(I)ncn2)cc1 [Compound 9] | – | – | – | – | IC50 (MIF [1]; [11]): 0.24 ± 0.05 µM; IC50 (MIF [1]; approximate, read-out: IC50 on MIF): ~0.2 µM; kinact MIF2 (rate of enzyme inactivation) (MIF2 [6]): 0.061 ± 0.010 min⁻¹; KI (inactivation) (MIF2 [6]; read-out: KI MIF2 (inhibition constant)): 85 ± 8.6 µM; kinact (MIF2 [6]; read-out: kinact MIF2 (rate of enzyme inactivation)): 0.001 to 0.0015 s⁻¹; improvement of potency for MIF2 inhibition compared to parental inhibitor 2 (MIF2 [2]): 2–6 factor; IC50 (MIF2 [2]; [12]): 78 ± 7.7 µM; KI on MIF relative to IC50 (MIF [5]; KI higher than IC50): about 10 times; KI (inactivation) (MIF [5]): 2.8 ± 0.67 µM; kinact (MIF [5]): 0.004 s⁻¹

Further lines, with some results ahead:

IC50 (MIF [1]; [7]) [µM] | IC50 (MIF2 [2]; [8]) [µM] | IC50 (MIF [1]; [9]) [µM] | IC50 (MIF2 [2]; [10]) [µM] | Compound | other results
0.63 ± 0.06 | > 250 | – | – | O=[N+]([O-])c1ccc(-c2cc(I)ncn2)cc1 [Compound 7, 4-Iodo-6-(4-nitrophenyl)pyrimidine] | IC50 (MIF [1]; [11]): 0.63 ± 0.06 µM; selectivity for MIF over MIF2 (MIF [1]; from tautomerase IC50 values): > 400 fold; potency relative to corresponding chloro-substituted intermediate (MIF [1]; Table S1): at least two times more potent; IC50 (MIF2 [2]; [12]): > 250 µM; KI (inactivation) (MIF [5]): 3.9 ± 0.7 µM; kinact (MIF [5]): 0.00467 s⁻¹
– | – | 1.4 | > 250 | O=[N+]([O-])c1ccc(-c2cc(Cl)ncn2)cc1 [Compound 7a, 4-Chloro-6-(4-nitrophenyl)pyrimidine] | –
– | – | 1.7 | 83 | Nc1ccc(-c2cc(Cl)ncn2)cc1 [Compound 8a, 4-(6-Chloropyrimidin-4-yl)aniline] | –
– | – | 112 | > 250 | CC(C)c1nc(I)cc(-c2ccc(C(=O)O)cc2)n1 [Compound 11, 4-(6-Iodo-2-isopropylpyrimidin-4-yl)benzoic acid] | –
– | – | > 250 | > 250 | CC(C)c1nc(Cl)cc(-c2ccc(C(=O)O)cc2)n1 [Compound 11a, 4-(6-Chloro-2-isopropylpyrimidin-4-yl)benzoic acid] | –
